Laboratory results published in patent US10168342B2, “Lipid probes and uses thereof” (THE SCRIPPS RESEARCH INSTITUTE, priority 2015, dated 2019).
Like-named read-outs stand apart in the source and are kept apart here.

Columns and labels:
[1] = molecular target: AEA-DA lipid probe targets in Neuro2a cells (Mus musculus, UniProt P57716)
[2] = molecular target: T1, AEA-DA lipid probe targets in Neuro2a cells (Mus musculus, UniProt P97311)
T1 sequence (P97311 1-821): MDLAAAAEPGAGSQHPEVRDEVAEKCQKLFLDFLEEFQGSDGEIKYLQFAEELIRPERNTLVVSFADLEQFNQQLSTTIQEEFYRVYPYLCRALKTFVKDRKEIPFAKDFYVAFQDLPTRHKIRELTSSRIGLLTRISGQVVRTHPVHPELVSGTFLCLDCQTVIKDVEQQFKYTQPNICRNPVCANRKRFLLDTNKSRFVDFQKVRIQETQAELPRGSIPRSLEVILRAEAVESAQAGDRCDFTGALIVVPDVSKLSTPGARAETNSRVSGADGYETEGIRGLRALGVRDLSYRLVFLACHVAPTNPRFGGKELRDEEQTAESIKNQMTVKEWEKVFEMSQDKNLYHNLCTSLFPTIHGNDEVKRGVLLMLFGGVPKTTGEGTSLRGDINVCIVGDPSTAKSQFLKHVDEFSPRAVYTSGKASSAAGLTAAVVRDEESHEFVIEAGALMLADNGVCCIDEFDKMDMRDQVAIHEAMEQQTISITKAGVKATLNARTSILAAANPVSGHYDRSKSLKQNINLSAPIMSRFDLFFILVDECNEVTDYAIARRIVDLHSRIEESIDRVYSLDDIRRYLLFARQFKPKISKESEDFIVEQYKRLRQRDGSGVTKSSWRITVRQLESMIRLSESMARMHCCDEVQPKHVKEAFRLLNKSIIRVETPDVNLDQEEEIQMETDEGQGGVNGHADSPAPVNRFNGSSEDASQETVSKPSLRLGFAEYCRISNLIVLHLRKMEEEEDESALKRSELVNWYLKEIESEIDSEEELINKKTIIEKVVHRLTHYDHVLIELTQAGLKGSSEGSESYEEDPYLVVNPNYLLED

[3] = molecular target: T2, AEA-DA lipid probe targets in Neuro2a cells (Mus musculus, UniProt Q8BH59)
T2 sequence (Q8BH59 1-677): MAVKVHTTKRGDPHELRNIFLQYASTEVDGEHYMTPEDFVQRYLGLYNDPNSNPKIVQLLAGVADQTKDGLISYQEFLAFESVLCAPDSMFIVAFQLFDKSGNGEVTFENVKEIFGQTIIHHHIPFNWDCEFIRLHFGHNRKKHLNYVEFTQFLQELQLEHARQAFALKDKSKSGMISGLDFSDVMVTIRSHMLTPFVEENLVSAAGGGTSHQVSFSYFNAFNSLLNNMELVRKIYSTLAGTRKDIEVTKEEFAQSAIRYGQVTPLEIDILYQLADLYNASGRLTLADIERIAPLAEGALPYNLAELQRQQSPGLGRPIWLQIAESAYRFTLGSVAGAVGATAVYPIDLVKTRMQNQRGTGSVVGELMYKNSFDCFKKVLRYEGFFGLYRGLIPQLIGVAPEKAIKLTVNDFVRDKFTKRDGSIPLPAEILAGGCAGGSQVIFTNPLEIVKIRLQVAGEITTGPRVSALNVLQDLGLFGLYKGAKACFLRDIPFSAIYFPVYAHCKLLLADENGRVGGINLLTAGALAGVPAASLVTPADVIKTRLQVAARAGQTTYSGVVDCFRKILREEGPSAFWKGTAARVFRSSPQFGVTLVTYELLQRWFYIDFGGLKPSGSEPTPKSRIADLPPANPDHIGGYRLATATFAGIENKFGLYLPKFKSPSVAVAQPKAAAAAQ

[4] = molecular target: T3, AEA-DA lipid probe targets in Neuro2a cells (Mus musculus, UniProt Q8BJ71)
T3 sequence (Q8BJ71 1-819): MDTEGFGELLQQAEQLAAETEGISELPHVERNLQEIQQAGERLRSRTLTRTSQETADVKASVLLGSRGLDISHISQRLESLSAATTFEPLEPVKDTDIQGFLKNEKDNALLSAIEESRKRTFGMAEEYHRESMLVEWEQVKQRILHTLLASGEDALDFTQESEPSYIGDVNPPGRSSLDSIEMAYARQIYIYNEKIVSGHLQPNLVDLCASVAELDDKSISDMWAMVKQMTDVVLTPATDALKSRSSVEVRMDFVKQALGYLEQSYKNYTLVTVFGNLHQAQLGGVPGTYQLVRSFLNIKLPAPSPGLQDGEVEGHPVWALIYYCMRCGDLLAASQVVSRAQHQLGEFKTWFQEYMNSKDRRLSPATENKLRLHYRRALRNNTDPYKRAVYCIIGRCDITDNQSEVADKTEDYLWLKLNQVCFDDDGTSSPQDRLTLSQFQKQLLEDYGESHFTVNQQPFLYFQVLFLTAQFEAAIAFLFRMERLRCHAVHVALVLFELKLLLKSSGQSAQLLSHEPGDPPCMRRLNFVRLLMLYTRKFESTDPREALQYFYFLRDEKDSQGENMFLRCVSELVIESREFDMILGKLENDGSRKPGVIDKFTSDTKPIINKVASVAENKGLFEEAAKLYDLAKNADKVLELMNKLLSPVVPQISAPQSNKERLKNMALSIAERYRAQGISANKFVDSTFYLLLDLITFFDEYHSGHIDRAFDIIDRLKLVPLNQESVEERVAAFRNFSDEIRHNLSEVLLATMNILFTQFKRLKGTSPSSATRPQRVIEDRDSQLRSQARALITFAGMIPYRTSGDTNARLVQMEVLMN

[5] = molecular target: AEA-DA lipid probe targets in Neuro2a cells (Mus musculus, UniProt Q8VIK2)
AEA-DA lipid probe targets in Neuro2a cells (Mus musculus, UniProt Q8VIK2), sequence (Q8VIK2 whole entry): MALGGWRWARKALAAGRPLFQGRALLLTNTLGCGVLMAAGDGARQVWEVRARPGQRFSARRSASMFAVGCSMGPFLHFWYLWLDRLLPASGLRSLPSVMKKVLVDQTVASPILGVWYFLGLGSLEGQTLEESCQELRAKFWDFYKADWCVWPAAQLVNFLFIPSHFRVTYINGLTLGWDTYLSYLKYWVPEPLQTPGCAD

AEA-DA lipid probe targets in Neuro2a cells (Mus musculus, UniProt P57716), sequence (P57716 28-708): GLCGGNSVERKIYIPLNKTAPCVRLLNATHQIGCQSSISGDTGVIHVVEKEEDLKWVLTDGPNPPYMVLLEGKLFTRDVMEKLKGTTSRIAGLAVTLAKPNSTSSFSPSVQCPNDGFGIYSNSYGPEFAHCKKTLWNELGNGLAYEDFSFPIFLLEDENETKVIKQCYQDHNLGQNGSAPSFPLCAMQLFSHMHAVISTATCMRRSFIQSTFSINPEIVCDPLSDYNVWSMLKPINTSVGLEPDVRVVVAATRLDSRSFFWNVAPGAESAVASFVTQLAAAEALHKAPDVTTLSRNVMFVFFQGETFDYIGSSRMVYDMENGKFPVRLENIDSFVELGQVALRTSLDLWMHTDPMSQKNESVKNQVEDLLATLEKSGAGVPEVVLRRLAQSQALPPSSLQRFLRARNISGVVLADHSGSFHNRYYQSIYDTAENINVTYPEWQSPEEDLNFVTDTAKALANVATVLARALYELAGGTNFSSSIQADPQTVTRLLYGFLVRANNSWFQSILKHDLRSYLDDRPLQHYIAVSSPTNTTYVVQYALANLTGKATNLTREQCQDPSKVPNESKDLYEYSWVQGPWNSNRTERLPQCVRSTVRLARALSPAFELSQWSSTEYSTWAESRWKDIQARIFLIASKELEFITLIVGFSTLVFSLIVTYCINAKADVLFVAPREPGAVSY

Compound	SILAC ratio Ncstn ([1]; competitor 25 μM)	SILAC ratio Mcm6 ([2]; competitor 25 μM)	SILAC ratio Slc25a12 ([3]; competitor 25 μM)	SILAC ratio Nup93 ([4]; competitor 25 μM)	SILAC ratio Mpv17l2 ([5]; competitor 25 μM)	also measured
CCCCC/C=C\C/C=C\C/C=C\C/C=C\CCCC(=O)NCCO [AEA, anandamide, reference compound]						SILAC ratio Ncstn ([1]; competitor 200 μM): 1.6; SILAC ratio Mcm6 ([2]; competitor 200 μM): 1.3; SILAC ratio Slc25a12 ([3]; competitor 200 μM): 1.1; SILAC ratio Nup93 ([4]; competitor 200 μM): 1.2; SILAC ratio Mpv17l2 ([5]; competitor 200 μM): 1.3
O=C(/C=C/c1cccnc1)NCCCCC1CCN(C(=O)c2ccccc2)CC1 [FK-866, reference compound]	1.1	1.1	1.1	1.2	1.4	
CN1CCN(C(=O)c2c(-c3ccccc3)c3cc([N+](=O)[O-])ccc3n2C)CC1 [KML110, (1-Methyl-5-nitro-3-phenyl-1H-indol-2-yl)(4-methylpiperazin-1-yl)methanone]	1.3	2.0	1.1	1.4	1.5	
CN1CCN(C(=O)c2[nH]c3ccc([N+](=O)[O-])cc3c2-c2ccccc2)CC1 [MJN228, (4-Methylpiperazin-1-yl)(5-nitro-3-phenyl-1H-indol-2-yl)methanone]	1.6	1.4	1.0	1.1	1.2	SILAC ratio Ncstn ([1]; competitor 10 μM): 1.3; SILAC ratio Ncstn ([1]; competitor 50 μM): 1.2; SILAC ratio Ncstn ([1]; competitor 100 μM): 1.8; SILAC ratio Mcm6 ([2]; competitor 10 μM): 1.2; SILAC ratio Mcm6 ([2]; competitor 50 μM): 1.0; SILAC ratio Mcm6 ([2]; competitor 100 μM): 1.6; SILAC ratio Slc25a12 ([3]; competitor 10 μM): 1.0; SILAC ratio Slc25a12 ([3]; competitor 50 μM): 0.9; SILAC ratio Slc25a12 ([3]; competitor 100 μM): 1.0; SILAC ratio Nup93 ([4]; competitor 10 μM): 0.9; SILAC ratio Nup93 ([4]; competitor 50 μM): 1.0; SILAC ratio Nup93 ([4]; competitor 100 μM): 1.1; SILAC ratio Mpv17l2 ([5]; competitor 10 μM): 1.1; SILAC ratio Mpv17l2 ([5]; competitor 50 μM): 1.0; SILAC ratio Mpv17l2 ([5]; competitor 100 μM): 3.6
C=CCN(C)CCCCCCOc1ccc(C(=O)c2ccc(Br)cc2)c(F)c1 [Ro 48-8071, reference compound]	1.0	0.8	1.0	0.9	1.8	
